Measurements taken from patent US6448280B1, “Angiotensin II antagonists against disorders associated with impaired neuronal conduction velocity, especially diabetic neuropathy” (Zeneca Limited, priority 1992, dated 2002).

Tests used:
Assay type in all cases: in vivo
[1] = test system: saphenous nerve; assay: Sensory nerve conduction velocity in streptozotocin-diabetic rats, saphenous nerve; details: streptozotocin-diabetic male rats; 50 mg/kg daily by gavage for one month, started after one month of diabetes; groin to ankle
Protocol: (§1) Using an analogous method to that described by Cameron et al in Quarterlty Journal of Experimental Physiology, 1989, 74, 917-926, mature male rats were divided into non-diabetic animals (normal control group) and animals rendered diabetic (by administration of streptozotocin (40-45 mg/kg in 20 mmol/l sodium citrate buffer, pH 4.5, i.p.). The diabetic animals were further divided into two groups. After one month, the motor nerve conduction velocities in one of the diabetic groups (diabetic control group 1) were measured in vivo between the sciatic notch and the knee for motor branches supplying the gastrocnemius and tibialis anterior muscles of the calf using the procedures described by Cameron et al (ibid) (further details of the procedures are given in Experimental Neurology, 1986, 92, 757-761). Sensory nerve conduction velocity was also measured for diabetic control group 1 in the saphenous nerve between the groin and ankle (again using the method of Cameron et al (ibid)). The remaining group of diabetic animals was further divided into two groups. One of these groups was given daily 2-ethyl-4-[(2′-(1H-1,2,3,4-tetrazol-5-yl)biphenyl-4-yl)methoxy]quinoline hydrochloride (Compound A; 50 mg/kg) by gavage, the other group remaining untreated (diabetic control group 2). […]

[2] = test system: motor branches supplying the tibialis anterior muscle (sciatic nerve); assay: Motor nerve conduction velocity in streptozotocin-diabetic rats, sciatic branch to tibialis anterior; details: streptozotocin-diabetic male rats; 50 mg/kg daily by gavage for one month, started after one month of diabetes; sciatic notch to knee
Protocol: as §1

[3] = test system: motor branches supplying the gastrocnemius muscle (sciatic nerve); assay: Motor nerve conduction velocity in streptozotocin-diabetic rats, sciatic branch to gastrocnemius; details: streptozotocin-diabetic male rats; 50 mg/kg daily by gavage for one month, started after one month of diabetes; sciatic notch to knee
Protocol: as §1

CCc1cc(OCc2ccc(-c3ccccc3-c3nnn[nH]3)cc2)c2ccccc2n1.Cl [Compound A, 2-ethyl-4-[(2′-(1H-1,2,3,4-tetrazol-5-yl)biphenyl-4-yl)methoxy]quinoline hydrochloride]
Sensory NCV Saphenous [1]: 60.2 ± 1.1 m/s | Motor NCV Tibialis Anterior [2]: 60.3 ± 1.2 m/s | Motor NCV Gastrocnemius [3]: 62.8 ± 0.9 m/s
